According to patent US9393229B2, “Method for treating abnormal polyglutamine-mediated disease” (NATIONAL TAIWAN NORMAL UNIVERSITY, priority 2013, dated 2016):

How the values were obtained:
[1] = test system: HSF1 promoter; experiment: Triple fluorescent reporter cells, HSF1 promoter activity; assay type: cell-based, human; settings: 100 nM-100 μM, 24 hours
Excerpt: (§1) Referring to three references (Zhang Y, Koushik S, Dai R, Mivechi N F, Journal of Biological Chemistry, vol. 273, no. 49, pp. 32514-32521, 1998; He M, Guo H, Yang X, Zhou L, Zhang X, Cheng L, Zeng H, Hu F B, Tanguay R M, Wu T, PLoS One, vol. 5, no. 3, e9684, 2010; and Wu Y R, Wang C K, Chen C M, Hsu Y, Lin S J, Lin Y Y, Fung H C, Chang K H, Lee-Chen G J, Human Genetics, vol. 114, no. 3, pp. 236-241, 2004), a triple fluorescent reporter plasmid was constructed in pAmCyan1-N1 with mCherry, ZsYellow1 and AmCyan1 fluorescent reporters driven by heat shock transcription factor1 (HSF1, −360˜+2, with the translation initiation A as +1), heat shock cognate protein (HSPA8, −1140˜+38, driving constitutively expressed HSP70) and heat-inducible HSP70 chaperone (HSPA1A, −273˜+215, driving heat-inducible HSP70) promoters, respectively. The fragment containing the HSF1, HSPA8 and HSPA1A driven reporters was removed with AseI and NotI restriction enzymes and used to replace an AseI-NotI fragment in pcDNA5/FRT/TO plasmid (Invitrogen). The resulting triple fluorescent reporter plasmid was used to generate triple fluorescent reporter cells by targeted insertion into Flp-In™-293 cells, according to the supplier's instructions (Invitrogen). The cells were selected by medium containing 5 μg/mL blasticidin S and 100 μg/mL hygromycin.
(§2) The three fluorescence colors were analyzed simultaneously using high-content analysis (HCA) system (ImageXpressMICRO, Molecular Devices), with excitation/emission wavelengths at […], 531/540 (ZsYellow1) and […].

[2] = test system: HSPA8 promoter; experiment: Triple fluorescent reporter cells, HSPA8 promoter activity; assay type: cell-based, human; settings: 100 nM-100 μM, 24 hours
Excerpt: as §1, §2

[3] = test system: HSPA1A promoter; experiment: Triple fluorescent reporter cells, HSPA1A promoter activity; assay type: cell-based, human; settings: 100 nM-100 μM, 24 hours
Excerpt: as §1, §2

[4] = test system: SCA17 mouse cerebellar slice culture; experiment: SCA17 mouse cerebellar slice culture, Purkinje cell aggregation; assay type: cell-based
Protocol: Cerebellum was separated from p7 SCA17 mice and transferred to ice-cold medium containing 50% basal medium eagle (Invitrogen), 25% Hank's buffered salt solution (Invitrogen), 25% horse serum (Invitrogen), 0.5% D-glucose (Sigma), 1 mM GlutaMAX I (Invitrogen), 100 U/mL penicillin (Invitrogen) and 100 μg/mL streptomycin (Invitrogen). The cerebellum was separated from the other brain regions in ice-cold medium, and the hemisphere was then cut into 350 μm parasagittal sections with a vibratome (VT1200S, Leica). To improve the survival rate of cerebellar slices, we continuously bubbled the medium with 95% O2 and 5% CO2 during the sectioning. The slices were then cultured on 0.4 μm pore size culture plate inserts (Millipore) in six-well plates. All treatments were applied to the slices at day 2. After culture for 7 days, cells were immunostained with primary antibody [IP3R-1 (for Purkinje cells), 1:1000, Santa Cruz; 1TBP18 (for aggregation), 1:30000, QED Bioscience], fluorescence-conjugated secondary antibody (1:500, Invitrogen) and DAPI (1:10000, Sigma). The staining results were observed by confocal microscope (DMRE, TCS SP2, Leica).
To further confirm neuroprotective potential of the indole compounds, we applied indole and NC001-8 to the SCA17 mouse cerebellar primary and slice cultures, respectively. […]

[5] = in vitro; settings: human, HEK-293 cells
Protocol: (§3) Human embryonic kidney HEK-293 cells (ATCC No. CRL-1573) were cultivated in Dulbecco's modified Eagle's medium (DMEM) containing 10% fetal bovine serum (FBS). Human neuroblastoma SH-SY5Y cells (ATCC No. CRL-2266) were maintained in DMEM F12 supplemented with 10% FBS. Cells were cultivated at 37° C. incubator containing 5% CO2 and cell proliferation was measured based upon the reduction of the tetrazolium salt, 3,[4,5-dimethylthiazol-2-yl]-2,5-diphenyl-tetrazolium bromide (MTT). […] After one day, 20 μL MTT (5 mg/mL in PBS, Sigma) was added to cells and incubated for 2 hours. The absorbance of the purple formazan dye was measured at 570 nm by a Bio-Tek μtQuant Universal Microplate Spectrophotometer.

[6] = in vitro; settings: human, SH-SY5Y cells
Protocol: as §3

[7] = test system: 293 ATXN3/Q75-GFP cells; experiment: ATXN3/Q75 aggregation assay (high content analysis); assay type: cell-based, human; settings: at 100 nM; 6 days doxycycline and oxaliplatin
Protocol: Then, doxycycline (10 μg/mL, BD) was added to the medium in each well to induce ATXN3/Q75-GFP expression for 6 days. […] Then, cells were stained with Hoechst 33342 (0.1 μg/mL, Sigma) and aggregation percentage was assessed by high content analysis (HCA) system (ImageXpressMICRO, Molecular Devices), with excitation/emission wavelengths at 482/536 (EGFP).

[8] = test system: LC3; experiment: LC3-II/LC3-I ratio (autophagy) in 293 ATXN3/Q75 cells, Western blot; assay type: cell-based, human; settings: 293 ATXN3/Q75 cells +Dox 6 days, 200 nM; +Dox alone 59%
Protocol: Total proteins were prepared using lysis buffer containing 50 mM Tris-HCl, 150 mM NaCl, 1 mM EDTA, 1 mM EGTA, 0.1% SDS and 0.5% sodium deoxycholate, 1% Triton X-100, and protease inhibitor cocktail (Calbiochem). Proteins (25 μg) were separated on 10% SDS-polyacrylamide gel electrophoresis and blotted on to nitrocellulose membranes by reverse electrophoresis. After blocking, the membrane was probed with antibody to HSF1 (1:1000 dilution, Abnova), HSPA8 (1:500 dilution, Santa Cruz), HSPA1A (1:500 dilution, Santa Cruz), GFP (1:500 dilution, Santa Cruz), LC3 (1:3000 dilution, MBL International), TBP (N-12) (1:500 dilution, Santa Cruz), β-actin (1:5000 dilution, Millipore) or GAPDH (1:1000 dilution, MDBio) at 4° C. overnight. Then the immune complexes were detected by horseradish peroxidase-conjugated goat anti-mouse (Jackson ImmunoResearch) or goat anti-rabbit (Rochland) IgG antibody (1:5000 dilution, GeneTex) and chemiluminescent substrate (Millipore).

[9] = test system: SH-SY5Y cells; experiment: MTT cytotoxicity against SH-SY5Y cells; settings: read-out: IC50 (cytotoxicity) against SH-SY5Y cells; MTT assay, 24 hours
Protocol: as §3

Row | Compound | HSF1 promoter activity [1] | HSPA8 promoter activity [2] | HSPA1A promoter activity [3] | reduction of Purkinje cell aggregation ([4]; 10 μM) [%] | IC50 at 24 h [5] [µM] | IC50 at 24 h [6] [µM] | ATXN3/Q75 aggregation as compared to untreated cells (100%) [7] [%] | reduction of Purkinje cell aggregation ([4]; 10 nM) [%] | LC3-II/LC3-I ratio [8] [%] | IC50 [9] [µM]
1 | O=C1CCc2[nH]c3ccccc3c21 [NC001-8, 3,4-dihydrocyclopenta[b]indol-1(2H)-one] | same trend of enhancement | same trend of enhancement | same trend of enhancement | 16 | > 1000 | 390 |  |  |  | 
2 | O=C(CCCCCCC(=O)Nc1ccccc1)NO [SAHA, suberoylanilide hydroxamic acid] |  |  |  |  |  |  | 85 |  |  | 
3 | c1ccc2[nH]ccc2c1 [indole] | same trend of enhancement | same trend of enhancement | same trend of enhancement |  | > 1000 | 680 |  | 28 |  | 
4 | CO[C@H]1C[C@@H]2CC[C@@H](C)[C@@](O)(O2)C(=O)C(=O)N2CCCC[C@H]2C(=O)O[C@H]([C@H](C)C[C@@H]2CC[C@@H](O)[C@H](OC)C2)CC(=O)[C@H](C)/C=C(\C)[C@@H](O)[C@@H](OC)C(=O)[C@H](C)C[C@H](C)/C=C/C=C/C=C/1C [rapamycin] |  |  |  |  |  |  |  |  | 98 | 
5 | geranylgeranylacetone [GGA, reference compound] | enhanced | enhanced | enhanced |  |  |  | 85 |  |  | 1000
